Assay results published in ChEMBL document CHEMBL4118055, “Chemoenzymatic Synthesis and α-Glucosidase Inhibitory Activity of Dimeric Neolignans Inspired by Magnolol” (J Nat Prod, 2017).

Tests used:
Saccharomyces cerevisiae = experiment: Inhibition of yeast alpha-glucosidase at 1.5 uM using p-nitrophenyl-alpha-glucopyranoside as substrate measured after 30 mins relative to control
[1] = Inhibition of yeast alpha-glucosidase using p-nitrophenyl-alpha-glucopyranoside as substrate measured after 30 mins; design: species or system Saccharomyces cerevisiae
[2] = Competitive-inhibition of yeast alpha-glucosidase using varying levels of p-nitrophenyl-alpha-glucopyranoside as substrate incubated for 20 mins measured at 1 min interval by Lineweaver-burk plot analysis; design: species or system Saccharomyces cerevisiae

## C=CCc1ccc(O)c(-c2ccc(O)c(CC=C)c2)c1 [HONOKIOL]
Saccharomyces cerevisiae
  inhibition: 3.9%
[1]
  IC50: 23000 nM

## C[C@H]1O[C@H](O[C@H]2[C@H](O)[C@@H](O)[C@@H](O[C@H]3[C@H](O)[C@@H](O)C(O)O[C@@H]3CO)O[C@@H]2CO)[C@H](O)[C@@H](O)[C@@H]1N[C@H]1C=C(CO)[C@@H](O)[C@H](O)[C@H]1O (stereo partly specified) [ACARBOSE]
Saccharomyces cerevisiae
  inhibition: 0.7%
[1]
  IC50: 270000 nM

## C=CCc1cc(O)c(O)c(-c2cc(CC=C)cc(OC)c2O)c1
Saccharomyces cerevisiae
  inhibition: 98%
[1]
  IC50: 500 nM

## COc1cc(CCO)cc(-c2cc(CCO)cc(OC)c2O)c1O
[1]
  IC50: > 100000 nM

## C=CCc1cc(OC)c(O)c(-c2cc(CC=C)cc(OC)c2O)c1
Saccharomyces cerevisiae
  inhibition: 46.7%
[1]
  IC50: 2000 nM

## CC(=O)OCCc1ccc(O)c(-c2cc(CCOC(C)=O)ccc2O)c1
Saccharomyces cerevisiae
  inhibition: 98.9%
[1]
  IC50: 150 nM
[2]
  Ki: 860 nM

## OCCc1cc(O)c(O)c(-c2cc(CCO)cc(O)c2O)c1
Saccharomyces cerevisiae
  inhibition: 18.2%
[1]
  IC50: 4100 nM

## OCCc1ccc(O)c(-c2cc(CCO)ccc2O)c1
Saccharomyces cerevisiae
  inhibition: 76.9%
[1]
  IC50: 860 nM

## C=CCc1ccc(O)c(-c2cc(CC=C)ccc2O)c1 [MAGNOLOL]
Saccharomyces cerevisiae
  inhibition: 29.8%
[1]
  IC50: 2000 nM

## COc1cc(CCO)cc(-c2cc(CCO)cc(O)c2O)c1O
[1]
  IC50: > 100000 nM

## CC(=O)OCCc1cc(O)c(O)c(-c2cc(CCOC(C)=O)cc(O)c2O)c1
Saccharomyces cerevisiae
  inhibition: 31.4%
[1]
  IC50: 2900 nM

## COc1cc(CCOC(C)=O)cc(-c2cc(CCOC(C)=O)cc(O)c2O)c1O
Saccharomyces cerevisiae
  inhibition: 21.3%
[1]
  IC50: 3300 nM

## COc1cc(CCOC(C)=O)cc(-c2cc(CCOC(C)=O)cc(OC)c2O)c1O
Saccharomyces cerevisiae
  inhibition: 64.5%
[1]
  IC50: 1100 nM

## O=c1c(O)c(-c2ccc(O)c(O)c2)oc2cc(O)cc(O)c12 [QUERCETIN]
Saccharomyces cerevisiae
  inhibition: 5.3%
[1]
  IC50: 14200 nM

## C=CCc1ccc(O)c(-c2cc(CC=C)cc(O)c2O)c1
Saccharomyces cerevisiae
  inhibition: 97.6%
[1]
  IC50: 490 nM

## C=CCc1cc(O)c(O)c(-c2cc(CC=C)cc(O)c2O)c1
Saccharomyces cerevisiae
  inhibition: 36.7%
[1]
  IC50: 2100 nM
